One data set deals with TNFα production. In words: Inhibitory action on production of TNFα (LPS-stimulated human peripheral blood monocyte fraction, ELISA). The data set is classed as cell-based. Particulars: LPS-stimulated human peripheral blood monocytes, incubation 18 to 24 hours, read-out: TNF^α Inhibition IC50. As to the method: Inhibitory Action on Production of TNF: Human peripheral blood was collected in […] and centrifuged (1000 rpm, 10 minutes, at room temperature) to remove platelet rich plasma, and then the blood sample was mixed with Hank's balanced salt solution (HBSS) (with an equal volume to the removed plasma) containing penicillin (100 units/ml) and streptomycin (100 μg/ml) (referred to hereinafter as “p, s”). Ficoll-paque (Pharmacia) with an volume of 3/5 relative to the sample mixture was layered on the lower layer and centrifuged at 1500 rpm for 30 minutes at room temperature, and the monocyte nucleus fraction was collected. The resulting monocyte nucleus fraction was washed twice with p, s-containing HBSS and prepared as a cell float at a cell density of 2-4×10^6 cells/ml in p, s-containing RPMI1640 (containing 10% FCS). 400 μl of the prepared cell float was added to a 48-wells culture plate, and 50 μl LPS (100 ng/ml of saline) and 50 μl of each of compound solutions prepared at various concentrations were added to each well, followed by incubation at 37° C. in a 5% CO2 mixed air. After incubation for 18 to 24 hours, the incubated buffer was separated, and TNFα thus released from the cells was measured by an ELISA kit (Amasham).
The inhibitory action of the compound on production of TNFα was determined in terms of IC50 by plotting the concentrations of the compound and the amount of produced TNFα (%relative to the control) on semilogarithmic graph paper. The control (100%) for the amount of TNFα produced was obtained by subtracting the amount of TNFα produced in the (basal) group where neither LPS nor the compound was added, from the amount of TNFα produced in the (control) group where the compound was not added.
After the compound was dissolved at a concentration of […] in DMSO solution containing the compound at a concentration which was 1000 times as high as the final concentration, and then the solution was diluted with RPMI1640 containing 10% FCS and p,s, to prepare a solution containing the compound at a concentration which was 10 times as high as the final concentration. In place of the compound solution, RPMI1640 (1% DMSO, 10% FCS) containing p, s was added to the control group basal group. In place of the LPS solution, physiological saline was added to the basal group.
A general note: An ELISA detects its analyte on a solid surface through an enzyme-linked reagent.

Another data set addresses PDE4D (Homo sapiens, UniProt Q08499). In words: Inhibitory action on PDE4 (homogenate of BHK cells expressing cloned human PDE4D, [3H]-cAMP hydrolysis). Particulars: average in triplicate measurements; 1 μM [3H]-cAMP substrate; read-out: PDE4 Inhibition IC50. The data set is classed as biochemical. As to the method:
Inhibitory Action on PDE4: PDE4D was cloned from human placental mRNA by PCR techniques, and cDNA after an alternative spliced site (Mol. Cell. Biol., 13, 6558, 1993) was expressed in BHK cells. Two clones of BHK cells expressing PDE4 activity which was 100 or more times as high as endogenous PDE4 activity were obtained, and one of the clones was cultured in a large amount, and its homogenate was used as an enzyme source of PDE4.
50 mM Tris-HCl (pH 8.0), 0.1 mM EGTA, 0.1 mM MgCl2, 1 μM [^3H]-cGMP (100,000 dpm/tube) or 1 μM [^3H]-cAMP (100,000 dpm/tube) was added to the above homogenate, and 0.2 ml of the mixture was incubated at 30° C. for 10 to 20 minutes in the presence or absence of a test compound. The enzyme reaction was stopped by incubating the mixture at 95° C. for 1.5 minutes, and after cooling on ice, 50 μl nucleotidase (10 units/ml) was added thereto and incubated at 30° C. for 10 minutes. 550 μl of AG1-X2 resin slurry (H2O:resin=2:1) was added to the reaction mixture, then left at 4° C. for 10 minutes and centrifuged (10,000 rpm, 2.5 minutes, 4° C.), and 450 μl of the supernatant was measured for radioactivity.
The activity was compared in terms of IC50 (concentration of the compound at which 50% of the enzyme activity is inhibited) IC50 was determined by plotting of the concentration of cAMP as the substrate and the concentration of the compound on logarithmic graph paper. The results shown in Table 1 are the average in triplicate measurements. The test compound was first dissolved in DMSO and then diluted with the above-mentioned buffer for use.

A further data set has as its system ZDP rat. In words: Blood sugar-depressing action (ZDP rat). Particulars: for Blood sugar level, Before the administration: baseline before the administration of the test compound; for Blood sugar level, After the continuous administration for 1 week / Glucose level relative to that (=100%) before the administration, after the continuous administration for 1 week: oral, once every day for 1 week; for Blood sugar level, After the continuous administration for 1 week: 4 hours fast, tail vein blood; for Glucose level relative to that (=100%) before the administration, after the continuous administration for 1 week: value in parentheses. It is filed as in vivo. As to the method: Blood Sugar-Depressing Action (ZDP rat): A test compound was suspended in 0.5% MC, and the suspension was orally administered to an animal once every day for 1 week. After the administration, the rat was allowed to fast for 4 hours, and blood was collected from the tail vein, added immediately to 0.6 M HClO4 (0.6 M HClO4=1:9), and centrifuged to give a supernatant which was then measured for glucose level by Glocose CII Test Wako Kit (Wako Pure Chemical Industries, Ltd., JP). In the table, values in the parentheses under the blood sugar level (mg/dl) indicate glucose levels relative to those (=100%) before the administration of the test compound.

pIC50: −log10 of the molar value.

Chain of PDE4D (Q08499 303-809 limits assumed): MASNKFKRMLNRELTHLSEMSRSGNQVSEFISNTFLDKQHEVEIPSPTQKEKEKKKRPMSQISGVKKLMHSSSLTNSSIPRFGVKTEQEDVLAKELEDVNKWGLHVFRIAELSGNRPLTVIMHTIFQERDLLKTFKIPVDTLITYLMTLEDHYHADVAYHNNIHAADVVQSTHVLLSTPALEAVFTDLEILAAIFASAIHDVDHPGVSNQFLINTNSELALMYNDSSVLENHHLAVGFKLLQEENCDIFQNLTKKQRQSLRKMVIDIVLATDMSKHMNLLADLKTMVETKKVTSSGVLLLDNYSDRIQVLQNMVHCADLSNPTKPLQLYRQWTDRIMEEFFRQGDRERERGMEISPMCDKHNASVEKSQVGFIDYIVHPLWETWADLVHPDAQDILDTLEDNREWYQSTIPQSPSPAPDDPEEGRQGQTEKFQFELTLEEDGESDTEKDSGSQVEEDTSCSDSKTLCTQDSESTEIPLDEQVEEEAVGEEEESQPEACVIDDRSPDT

For `CNc1nc(-c2cccc(NC(=O)c3ccncc3)c2)c2cc(OC)c(OC)cc2n1` [Example 2, 6,7-Dimethoxy-2-methylamino-4-[3-(4-pyridinecarbonylamino)phenyl]quinazoline], the melting point is 228 to 230 °C. Further, the pIC50 in the data set with TNFα production is 8.33. In addition, the pIC50 at PDE4D was 8.07.

`CNc1nc(-c2cccc(NC(=O)c3ccc(OC)c(OC)c3)c2)c2cc(OC)c(OC)cc2n1` [Example 14, 6,7-Dimethoxy-4-[3-(3,4-dimethoxybenzoylamino)phenyl]-2-methylaminoquinazoline]: the melting point is 128 to 130 °C. For the same compound, in the data set on TNFα production, the pIC50 is 8.80. In addition, on PDE4D, the pIC50 was 8.40.

As to `CNc1nc(-c2cccc(NC(=O)c3ccc(OC)c(Cl)c3)c2)c2cc(OC)c(OC)cc2n1` [Example 18, 4-[3-(3-Chloro-4-methoxybenzoylamino)phenyl]-6,7-dimethoxy-2-methylaminoquinazoline], the melting point fell in the range of 130 to 132 °C. In the data set with TNFα production, the pIC50 is 8.48. For the same compound, the pIC50 at PDE4D was 8.85.

As to `CNc1ccc(C(=O)Nc2cccc(-c3nc(NC)nc4cc(OC)c(OC)cc34)c2)cn1` [Example 32, 6,7-Dimethoxy-2-methylamino-4-[3-(6-methylaminonicotinoylamino)phenyl]quinazoline], the melting point was in the range of 193 to 195 °C. In the data set on ZDP rat, the “Blood sugar level, Before the administration” value stood at 478.5 ± 7.3 mg/dL; the “Blood sugar level, After the continuous administration for 1 week” value amounted to 349.3 ± 44.3 mg/dL; the “Glucose level relative to that (=100%) before the administration, after the continuous administration for 1 week” value is “(73.0) %”. The pIC50 with TNFα production was 8.64. At PDE4D, the pIC50 was 8.59.

Compound `CNc1nc(-c2cccc(-c3cnc4ccccc4c3)c2)c2cc(OC)c(OC)cc2n1` [Example 49, 6,7-Dimethoxy-2-methylamino-4-[3-(3-quinolyl)phenyl]quinazoline] yielded a melting point of 218 to 220 °C. The pIC50 in the data set on TNFα production is 8.77. Moreover, the pIC50 on PDE4D was 8.96.

For the compound `CCOc1cc2nc(NC)nc(-c3cccc(-c4cncc([S+](C)[O-])c4)c3)c2cc1OCC` (stereo not drawn) [Example 62], the melting point lay in the range of 188 to 190 °C. Also, in the data set on ZDP rat, the “Blood sugar level, Before the administration” value came out at 478.6 ± 24.0 mg/dL; the “Blood sugar level, After the continuous administration for 1 week” value turned out to be 369.1 ± 37.3 mg/dL; the “Glucose level relative to that (=100%) before the administration, after the continuous administration for 1 week” value is on record as “(77.1) %”. In addition, on PDE4D, the pIC50 is 8.72.

In turn, `CNc1nc(-c2cccc(-c3cnc4c(C)cccc4c3)c2)c2cc(OC)c(OC)cc2n1` [Example 64, 6,7-Dimethoxy-4-[3-(8-methyl-3-quinolyl)phenyl]-2-methylaminoquinazoline] had a melting point of 188 to 190 °C. Also, the pIC50 on PDE4D is 9.72.

`CNc1nc(-c2cccc(C#Cc3ccccc3)c2)c2cc(OC)c(OC)cc2n1` [Example 65, 6,7-Dimethoxy-2-methylamino-4-[3-(2-phenylethynyl)phenyl]quinazoline] had a melting point of 102 to 104 °C. Besides, the pIC50 on PDE4D is 8.60.

By melting point is commonly meant the temperature of the solid-liquid transition. The pIC50 is −log10 of the IC50, conventionally taken in molar units.
